Assays:
[1] = molecular target: T1, androgen receptor (AR) (Homo sapiens, UniProt P10275); experiment: Induction of AR-mediated transcriptional activity (MMTV-CAT reporter assay); assay type: cell-based; conditions: PC-3 cells co-transfected with AR plasmid and MMTV-CAT; compounds at 1000, 10 and 0.1 nM; FIG. 1
T1 construct: expressed in transfected cells; host or cells: PC-3 (AR-negative human prostate cancer cell line)
T1 sequence (P10275 1-920): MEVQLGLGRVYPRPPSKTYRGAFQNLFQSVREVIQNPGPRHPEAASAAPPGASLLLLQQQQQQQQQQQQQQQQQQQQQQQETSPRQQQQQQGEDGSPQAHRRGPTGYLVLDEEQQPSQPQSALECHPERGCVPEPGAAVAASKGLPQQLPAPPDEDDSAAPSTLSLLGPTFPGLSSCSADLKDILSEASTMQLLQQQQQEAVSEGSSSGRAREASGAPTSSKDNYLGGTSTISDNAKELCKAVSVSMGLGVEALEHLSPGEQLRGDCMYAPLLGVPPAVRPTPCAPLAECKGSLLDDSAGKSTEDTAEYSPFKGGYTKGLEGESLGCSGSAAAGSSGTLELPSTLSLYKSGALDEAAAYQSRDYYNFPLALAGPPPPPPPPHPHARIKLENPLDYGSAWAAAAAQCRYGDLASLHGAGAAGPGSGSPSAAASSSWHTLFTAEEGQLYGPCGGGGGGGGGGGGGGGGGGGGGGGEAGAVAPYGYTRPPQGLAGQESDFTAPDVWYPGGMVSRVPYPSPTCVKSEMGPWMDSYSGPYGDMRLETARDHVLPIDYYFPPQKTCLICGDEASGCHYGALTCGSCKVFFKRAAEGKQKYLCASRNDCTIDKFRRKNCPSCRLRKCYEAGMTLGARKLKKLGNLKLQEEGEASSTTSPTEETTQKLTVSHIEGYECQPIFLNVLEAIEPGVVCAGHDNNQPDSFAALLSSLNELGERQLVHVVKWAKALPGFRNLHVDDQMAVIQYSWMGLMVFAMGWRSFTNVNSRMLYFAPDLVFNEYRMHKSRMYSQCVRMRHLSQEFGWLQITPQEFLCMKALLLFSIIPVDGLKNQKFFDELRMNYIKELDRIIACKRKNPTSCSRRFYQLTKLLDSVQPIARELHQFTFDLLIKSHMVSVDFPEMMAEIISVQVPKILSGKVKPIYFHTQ
Description: (§1) AR activity assay. […] Ethynyl derivatized steroids were purchased from Steraloids.
Induction of AR-mediated transcriptional activity. Steroid compounds were screened for their ability to induce AR transcriptional activity in the AR-negative PC-3 cell line. The results of the CAT assay were obtained by transient co-transfection of AR plasmid and a reporter plasmid (MMTVCAT) containing the CAT gene linked to the androgen response element (ARE). After transfection, the cells were treated with various DHEA derivatives at 1000, 10, and 0.1 nM.

[2] = molecular target: T1, androgen receptor (AR); experiment: Anti-adiol activity: modulation of AED-induced AR transactivation (MMTV-CAT assay); assay type: cell-based; conditions: PC-3 cells, pSG5 AR + MMTV-CAT, 50 nM AED, compound at 10, 100 or 1000 nM; FIG. 2B
From the text: as §1

[3] = molecular target: T2, progesterone receptor (PR) (Homo sapiens, UniProt P06401); experiment: Steroid hormone specificity: MMTV-CAT reporter with PR in PC-3 cells; conditions: PC-3 cells transfected with MMTV-CAT and PR; FIG. 5
T2 sequence (P06401 1-933): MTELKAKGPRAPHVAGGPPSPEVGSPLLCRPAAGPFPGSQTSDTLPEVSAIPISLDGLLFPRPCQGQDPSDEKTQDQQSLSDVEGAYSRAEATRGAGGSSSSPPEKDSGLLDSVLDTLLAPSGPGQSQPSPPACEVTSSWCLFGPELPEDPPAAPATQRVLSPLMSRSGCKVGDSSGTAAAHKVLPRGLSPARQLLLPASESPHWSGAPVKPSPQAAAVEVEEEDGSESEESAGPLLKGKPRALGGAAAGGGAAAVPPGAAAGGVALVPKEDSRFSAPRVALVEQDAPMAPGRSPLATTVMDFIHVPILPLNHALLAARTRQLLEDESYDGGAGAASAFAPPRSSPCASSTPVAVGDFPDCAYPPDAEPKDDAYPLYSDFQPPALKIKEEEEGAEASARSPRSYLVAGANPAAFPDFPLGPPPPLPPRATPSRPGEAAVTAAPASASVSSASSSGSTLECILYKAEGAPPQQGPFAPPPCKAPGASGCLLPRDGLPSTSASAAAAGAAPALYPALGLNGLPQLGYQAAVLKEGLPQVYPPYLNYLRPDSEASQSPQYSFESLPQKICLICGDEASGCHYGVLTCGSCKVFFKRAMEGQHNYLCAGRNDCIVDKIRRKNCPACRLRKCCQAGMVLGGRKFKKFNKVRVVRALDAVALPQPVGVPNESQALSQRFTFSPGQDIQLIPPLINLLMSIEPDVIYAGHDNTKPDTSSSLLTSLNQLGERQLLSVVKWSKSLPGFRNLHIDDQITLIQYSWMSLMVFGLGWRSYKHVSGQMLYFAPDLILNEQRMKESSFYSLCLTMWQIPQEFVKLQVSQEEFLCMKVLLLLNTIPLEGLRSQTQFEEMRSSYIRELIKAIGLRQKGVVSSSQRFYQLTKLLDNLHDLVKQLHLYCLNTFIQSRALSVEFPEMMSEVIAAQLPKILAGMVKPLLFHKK
Description: Ethynyl derivatized steroids were purchased from Steraloids. The plasmid pSG5-wild-type AR (pSG5) and mouse mammalian tumor virus (MMTV)-chloramphenicol acetyltransferase (CAT) were constructed as described (6). […] The human prostate cancer cell line, PC-3, and human breast cancer cell line, MCF-7, were maintained in Dulbecco's modified eagles medium (DMEM) containing 10% fetal calf serum. DNA transfection and CAT assays were performed essentially as described (4, 6, 7). Briefly, 4×10^5 cells were plated on 60 mm dishes 24 h before transfection, and the medium was changed to DMEM (without phenol red) with 10% charcoal-stripped fetal calf serum 1 hour before transfection. The cells were transfected using the calcium phosphate precipitation method. The total amount of DNA was adjusted to 8.5 μg with pSG5 in each transfection assay. After transfecting the cells for 24 hours, the transfection medium was removed, fresh DMEM was added and steroids were added. The cells were then incubated in DMEM with steroids for 24 hours. After incubation, the cells were harvested and whole cell extracts were used for CAT assay. Transfection efficiency was normalized by cotransfection with a βgalactosidase vector, which acted as an internal control. The CAT enzyme activity was quantitated by phosphor imager according to the manufacturer's instructions (Molecular Dynamics).

[4] = molecular target: T1, androgen receptor (AR); experiment: Suppression of AED-induced AR transcriptional activity in the presence of HF (MMTV-CAT assay); assay type: cell-based; conditions: PC-3 cells, 1 μM HF, 50 nM AED; FIG. 4
From the text: as §1

Row | Molecule | androgenic activity (AR-mediated CAT gene transactivation) [1] | effect on AED-mediated AR transcriptional activity [2] | PR activity [3] | suppression of AED-mediated AR transcription activity by HF [4]
1 | 3β,17β-diacetoxy-androst-5-ene-7α,17β-diol [Compound 13] | little androgenic activity | either activation of AED-mediated AR transcriptional activity or they have no effect |  | 
2 | 3β-methoxy-androst-5-ene-?,17β-diol [Compound 16] | little androgenic activity |  |  | 
3 | 17-methyl-marrianolic acid [Compound 18] | little androgenic activity | either activation of AED-mediated AR transcriptional activity or they have no effect |  | 
4 | C#C[C@]1(O)CCC2C3CCc4cc(O)ccc4C3CC[C@@]21C (stereo partly drawn) [Compound 4, 1, 3, 5(10)-estratriene-17α-ethynyl-3β,17β-diol] |  |  | some weak PR activity | 
5 | C[C@]12C[C@H](O)[C@H]3[C@@H](CC=C4C[C@@H](O)CC[C@@]43C)[C@@H]1CC[C@@H]2O [Compound 5, androst-5-ene-3β,11β,17β-triol] | little androgenic activity | either activation of AED-mediated AR transcriptional activity or they have no effect |  | 
6 | C#C[C@]1(O)CCC2C3CC=C4C[C@@H](O)CC[C@]4(C)C3CC[C@@]21C (stereo partly drawn) [Compound 6, 17α-ethynyl-androst-5-ene-3β,17β-diol] | little androgenic activity | antagonized AED-mediated AR transcriptional activity |  | 
7 | C[C@]12CC[C@H]3[C@@H](CC=C4C[C@@H](O)CC[C@@]43C)[C@@H]1CC(=O)[C@@H]2O [Compound 8, 3β,17β-dihydroxy-androst-5-en-16-one] | little androgenic activity | antagonized AED-mediated AR transcriptional activity |  | 
8 | COC(=O)O[C@H]1CC[C@@]2(C)C(=CC(=O)[C@@H]3[C@@H]2CC[C@]2(C)C(=O)CC[C@@H]32)C1 [Compound 10, 3β,-methylcarbonate-androst-5-en-7,17-dione] | little androgenic activity | antagonized AED-mediated AR transcriptional activity |  | 
9 | CO[C@H]1CC[C@@]2(C)C(=CC(=O)[C@H]3[C@@H]4CC[C@H](O)[C@@]4(C)CC[C@@H]32)C1 [Compound 15, 3β-methoxy-17β-hydroxy-androst-5-ene-7-one] | little androgenic activity | either activation of AED-mediated AR transcriptional activity or they have no effect |  | 
10 | C[C@]12CC[C@H]3[C@@H](C(=O)C=C4C[C@@H](O)CC[C@@]43C)[C@@H]1CC[C@@H]2O [Compound 22, 7-oxo-androstene-3β,17β-diol] | little androgenic activity | either activation of AED-mediated AR transcriptional activity or they have no effect |  | 
11 | CC(C)(O)C(=O)Nc1ccc([N+](=O)[O-])c(C(F)(F)F)c1 [HF, hydroxyflutamide] |  |  |  | about 40%

— US7776845B2, “Pharmaceutical compositions” (Harbor Biosciences, Inc., priority 1999, dated 2010)
